Assay results as given in patent US12102648B2, “Orally-bioavailable nucleoside analogs” (priority 2021, dated 2024).
Where two headings read alike, the source gives them in different places.

Assay: in vitro
Assay type: in vitro ADME
Settings: human
How it was run: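 Caco-2 monolayers cultured 19 days on inserts (TEER >600 […]); bidirectional A-to-B and B-to-A transport at 37° C over 90 min, samples quantified by LC/MS/MS. Papp, efflux ratio and recovery calculated; ER >2 flags potential efflux substrates.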

[1] = Caco-2 monolayer, apical to basolateral, 90-minute incubation, read-out: Papp, A-B
[2] = Caco-2 monolayer, basolateral to apical, 90-minute incubation, read-out: Papp, B-A
[3] = Caco-2 monolayer, ER>2 indicates potential efflux transporter substrate, read-out: ER (efflux ratio)

SMILES | Papp A→B at 90 min [1] | Papp B→A at 90 min [2] | efflux ratio at 90 min [3] | Papp A→B at 90 min (Caco-2) | Papp B→A at 90 min (Caco-2) | efflux ratio at 90 min (Caco-2)
CC(C)[C@H](N)C(=O)Nc1ncnn2c([C@]3(C#N)O[C@H](CO)[C@@H](OC(=O)Cc4ccccc4)[C@H]3O)ccc12 [Compound 144, (2R,3S,4R,5R)-5-(4-((S)-2-amino-3-methylbutanamido)pyrrolo[2,1-f][1,2,4]triazin-7-yl)-5-cyano-4-hydroxy-2-(hydroxymethyl)tetrahydrofuran-3-yl 2-phenylacetate] | 0.03 ×10⁻⁶ cm/s | 1.8 ×10⁻⁶ cm/s | 53 | – | – | –
CC(C)[C@H](N)C(=O)OC[C@H]1O[C@@](C#N)(c2ccc3c(N)ncnn23)[C@H](O)[C@@H]1O [Compound 11, ((2R,3S,4R,5R)-5-(4-aminopyrrolo[2,1-f][1,2,4]triazin-7-yl)-5-cyano-3,4-dihydroxytetrahydrofuran-2-yl)methyl L-valinate] | – | – | – | 0.4 ×10⁻⁶ cm/s | 0.1 ×10⁻⁶ cm/s | 0.4
CCCC(=O)Nc1ncnn2c([C@]3(C#N)O[C@H](COC(=O)CC4(N)CCCCC4)[C@@H](O)[C@H]3O)ccc12 [Compound 354, ((2R,3S,4R,5R)-5-(4-butyramidopyrrolo[2,1-f][1,2,4]triazin-7-yl)-5-cyano-3,4-dihydroxytetrahydrofuran-2-yl)methyl 2-(1-aminocyclohexyl)acetate] | – | – | – | 10 ×10⁻⁶ cm/s | 3 ×10⁻⁶ cm/s | 0.29
CC(C)[C@H](N)C(=O)Nc1ncnn2c([C@]3(C#N)O[C@H](CO)[C@@H](OC(=O)CC4CCCCC4)[C@H]3O)ccc12 [Compound 139, (2R,3S,4R,5R)-5-(4-((S)-2-amino-3-methylbutanamido)pyrrolo[2,1-f][1,2,4]triazin-7-yl)-5-cyano-4-hydroxy-2-(hydroxymethyl)tetrahydrofuran-3-yl 2-cyclohexylacetate] | – | – | – | 0.18 ×10⁻⁶ cm/s | 6.1 ×10⁻⁶ cm/s | 34
CNc1nc(N)nc2c1ncn2[C@@H]1O[C@H](COC(=O)CC2CCCCC2)[C@@H](OC(C)=O)[C@@]1(C)F [Compound 215, ((2R,3R,4R,5R)-3-acetoxy-5-(2-amino-6-(methylamino)-9H-purin-9-yl)-4-fluoro-4-methyltetrahydrofuran-2-yl)methyl 2-cyclohexylacetate] | – | – | – | 9.3 ×10⁻⁶ cm/s | 1.6 ×10⁻⁶ cm/s | 0.18
CCC(=O)O[C@@H]1[C@@H](COC(C)=O)O[C@@H](n2cnc3c(NC)nc(N)nc32)[C@]1(C)F [Compound 329, (2R,3R,4R,5R)-2-(acetoxymethyl)-5-(2-amino-6-(methylamino)-9H-purin-9-yl)-4-fluoro-4-methyltetrahydrofuran-3-yl propionate] | – | – | – | 16 ×10⁻⁶ cm/s | 18 ×10⁻⁶ cm/s | 1.1
C[C@H](C(=O)OC[C@H]1O[C@@](C#N)(c2ccc3c(N)ncnn23)[C@H](O)[C@@H]1O)C1CCCCC1 [Compound 281, ((2R,3S,4R,5R)-5-(4-aminopyrrolo[2,1-f][1,2,4]triazin-7-yl)-5-cyano-3,4-dihydroxytetrahydrofuran-2-yl)methyl (S)-2-cyclohexylpropanoate] | – | – | – | 13 ×10⁻⁶ cm/s | 29 ×10⁻⁶ cm/s | 2.3
CC(=O)Nc1ncnn2c([C@]3(C#N)O[C@H](COC(=O)Cc4ccccc4)[C@@H](OC(=O)[C@@H](N)C(C)C)[C@H]3O)ccc12 [Compound 344, (2R,3S,4R,5R)-5-(4-acetamidopyrrolo[2,1-f][1,2,4]triazin-7-yl)-5-cyano-4-hydroxy-2-((2-phenylacetoxy)methyl)tetrahydrofuran-3-yl L-valinate] | 0.8 ×10⁻⁶ cm/s | 9.7 ×10⁻⁶ cm/s | 12 | – | – | –
CC1(CC(=O)OC[C@H]2O[C@@](C#N)(c3ccc4c(N)ncnn34)[C@H](O)[C@@H]2O)CCCCC1 [Compound 273, ((2R,3S,4R,5R)-5-(4-aminopyrrolo[2,1-f][1,2,4]triazin-7-yl)-5-cyano-3,4-dihydroxytetrahydrofuran-2-yl)methyl 2-(1-methylcyclohexyl)acetate] | – | – | – | 3.7 ×10⁻⁶ cm/s | 3.2 ×10⁻⁶ cm/s | 0.85
CNc1nc(N)nc2c1ncn2[C@@H]1O[C@H](COC(C)=O)[C@@H](O)[C@@]1(C)F [Compound 178, ((2R,3R,4R,5R)-5-(2-amino-6-(methylamino)-9H-purin-9-yl)-4-fluoro-3-hydroxy-4-methyltetrahydrofuran-2-yl)methyl acetate] | – | – | – | 6.7 ×10⁻⁶ cm/s | 4.4 ×10⁻⁶ cm/s | 0.7
CCC(=O)OC[C@H]1O[C@@H](n2cnc3c(NC)nc(N)nc32)[C@](C)(F)[C@@H]1O [Compound 180, ((2R,3R,4R,5R)-5-(2-amino-6-(methylamino)-9H-purin-9-yl)-4-fluoro-3-hydroxy-4-methyltetrahydrofuran-2-yl)methyl propionate] | 4.6 ×10⁻⁶ cm/s | 7.6 ×10⁻⁶ cm/s | 1.6 | – | – | –
CC(=O)Nc1ncnn2c([C@]3(C#N)O[C@H](COC(=O)CC4CCCCC4)[C@@H](OC(=O)[C@@H](N)C(C)C)[C@H]3O)ccc12 [Compound 348, (2R,3S,4R,5R)-5-(4-acetamidopyrrolo[2,1-f][1,2,4]triazin-7-yl)-5-cyano-2-((2-cyclohexylacetoxy)methyl)-4-hydroxytetrahydrofuran-3-yl L-valinate] | – | – | – | 0.43 ×10⁻⁶ cm/s | 13 ×10⁻⁶ cm/s | 30
CC(C)C(=O)Nc1ncnn2c([C@]3(C#N)O[C@H](COC(=O)CC4CCCCC4)[C@@H](OC(=O)[C@@H](N)C(C)C)[C@H]3O)ccc12 [Compound 349, (2R,3S,4R,5R)-5-cyano-2-((2-cyclohexylacetoxy)methyl)-4-hydroxy-5-(4-isobutyramidopyrrolo[2,1-f][1,2,4]triazin-7-yl)tetrahydrofuran-3-yl L-valinate] | – | – | – | 1.9 ×10⁻⁶ cm/s | 10 ×10⁻⁶ cm/s | 5.6
CC(C)(C)C(=O)OCO[C@H]1[C@@H](O)[C@](C#N)(c2ccc3c(N)ncnn23)O[C@@H]1COC(=O)Cc1ccccc1 [Compound 48, {[(2R,3S,4R,5R)-5-{4-aminopyrrolo[2,1-f][1,2,4]triazin-7-yl}-5-cyano-4-hydroxy-2-{[(2-phenylacetyl)oxy]methyl}oxolan-3-yl]oxy}methyl 2,2-dimethylpropanoate] | 6.9 ×10⁻⁶ cm/s | 1.9 ×10⁻⁶ cm/s | 0.27 | – | – | –
N#C[C@@]1(c2ccc3c(N)ncnn23)O[C@H](COC(=O)CC2CCC(F)(F)CC2)[C@@H](O)[C@H]1O [Compound 262, ((2R,3S,4R,5R)-5-(4-aminopyrrolo[2,1-f][1,2,4]triazin-7-yl)-5-cyano-3,4-dihydroxytetrahydrofuran-2-yl)methyl 2-(4,4-difluorocyclohexyl)acetate] | – | – | – | 0.91 ×10⁻⁶ cm/s | 4.4 ×10⁻⁶ cm/s | 4.8
CC(C)C(=O)OC[C@H]1O[C@@](C#N)(c2ccc3c(NC(=O)c4ccccc4)ncnn23)[C@H](O)[C@@H]1O [Compound 108, ((2R,3S,4R,5R)-5-(4-benzamidopyrrolo[2,1-f][1,2,4]triazin-7-yl)-5-cyano-3,4-dihydroxytetrahydrofuran-2-yl)methyl isobutyrate] | – | – | – | 1.5 ×10⁻⁶ cm/s | 2 ×10⁻⁶ cm/s | 1.4
CC(=O)OCOC(=O)Nc1ncnn2c([C@]3(C#N)O[C@H](COC(=O)CC4CCCCC4)[C@@H](OC(=O)[C@@H](N)C(C)C)[C@H]3O)ccc12 [Compound 358, (2R,3S,4R,5R)-5-(4-(((acetoxymethoxy)carbonyl)amino)pyrrolo[2,1-f][1,2,4]triazin-7-yl)-5-cyano-2-((2-cyclohexylacetoxy)methyl)-4-hydroxytetrahydrofuran-3-yl L-valinate] | – | – | – | 0.3 ×10⁻⁶ cm/s | 0.1 ×10⁻⁶ cm/s | 0.33
CC(C)C(=O)OC[C@H]1O[C@@](C#N)(c2ccc3c(NC(=O)[C@@H](N)Cc4ccc(F)cc4)ncnn23)[C@H](O)[C@@H]1O [Compound 100, ((2R,3S,4R,5R)-5-(4-((S)-2-amino-3-(4-fluorophenyl)propanamido)pyrrolo[2,1-f][1,2,4]triazin-7-yl)-5-cyano-3,4-dihydroxytetrahydrofuran-2-yl)methyl isobutyrate] | – | – | – | 0.03 ×10⁻⁶ cm/s | 2.7 ×10⁻⁶ cm/s | 92
N#C[C@@]1(c2ccc3c(NC(=O)[C@@H](N)Cc4ccc(F)cc4)ncnn23)O[C@H](CO)[C@@H](OC(=O)CC2CCCCC2)[C@H]1O [Compound 137, (2R,3S,4R,5R)-5-(4-((S)-2-amino-3-(4-fluorophenyl)propanamido)pyrrolo[2,1-f][1,2,4]triazin-7-yl)-5-cyano-4-hydroxy-2-(hydroxymethyl)tetrahydrofuran-3-yl 2-cyclohexylacetate] | – | – | – | 0.6 ×10⁻⁶ cm/s | 2.7 ×10⁻⁶ cm/s | 4.5
CC(C)(C)[C@H](N)C(=O)OC[C@H]1O[C@@](C#N)(c2ccc3c(N)ncnn23)[C@H](O)[C@@H]1O [Compound 410, ((2R,3S,4R,5R)-5-(4-aminopyrrolo[2,1-f][1,2,4]triazin-7-yl)-5-cyano-3,4-dihydroxytetrahydrofuran-2-yl)methyl (S)-2-amino-3,3-dimethylbutanoate] | – | – | – | 0.47 ×10⁻⁶ cm/s | 1.49 ×10⁻⁶ cm/s | 3.2
CCC(=O)Nc1nc(NC)c2ncn([C@@H]3O[C@H](COC(C)=O)[C@@H](OC(=O)CC)[C@@]3(C)F)c2n1 [Compound 331, (2R,3R,4R,5R)-2-(acetoxymethyl)-4-fluoro-4-methyl-5-(6-(methylamino)-2-propionamido-9H-purin-9-yl)tetrahydrofuran-3-yl propionate] | – | – | – | 7.9 ×10⁻⁶ cm/s | 16 ×10⁻⁶ cm/s | 2.1
CC1(C)CCC(CC(=O)OC[C@H]2O[C@@](C#N)(c3ccc4c(N)ncnn34)[C@H](O)[C@@H]2O)CC1 [Compound 272, ((2R,3S,4R,5R)-5-(4-aminopyrrolo[2,1-f][1,2,4]triazin-7-yl)-5-cyano-3,4-dihydroxytetrahydrofuran-2-yl)methyl 2-(4,4-dimethylcyclohexyl)acetate] | – | – | – | 1.2 ×10⁻⁶ cm/s | 0.64 ×10⁻⁶ cm/s | 0.52
